Experimental data from article PMC12973313 (Chemical Science, 2026).
≈ marks a conversion by molar mass, not a printed value. Where “and” joins values, the source holds several entries; their conditions need not be identical. Identical values can stand only once. Like-named read-outs stand apart in the source and are kept apart here.

Experiments:
[1] = Metabolic stability in liver microsomes; assay type: in vitro ADME, rat
Method: Following this, the metabolic stability of 9 was determined against mouse, rat, and human liver microsomes. […] Within this assay the stability of the intact parent compound is monitored with respect to time, during incubation at 37 °C in the presence and absence of the co-factor NADPH – required for cytochrome p450 activity.
Metabolic Stability in Rat, Mouse and Human Liver Microsomes:
The metabolic stability of compounds at a concentration of 1 µM, in rat, mouse and human liver microsomes (BD Gentest, Franklin Lakes NJ) was measured following incubation with […]
(NADPH) at 37 °C. Aliquots of each incubation were removed at 0.5, 5, 15, 30 and 60 minutes. The reaction was stopped by the addition of cold acetonitrile containing analytical […]
Samples were then centrifuged at 3,220 g for 40 minutes. The supernatant was aliquoted and added to ultra-pure H2O in a 1:1 ratio in preparation for LC-MS/MS analysis.
Incubations were conducted in duplicate; control incubations (substituting PBS for NADPH) were conducted simultaneously.
Samples were analysed using a Shimadzu Shimadzu Nexera LC Binary Gradient LC-30AD (Shimadzu Inc, Kyoto), coupled to a Sciex 5500 mass spectrometer (AB Inc., Illinois) for rat and mouse microsomes and a Sciex 6500+ for human microsomes. Separation achieved using an XSelect HSS T3 column (2.5µm, 50 x 2.1 mm) (Waters Ltd., Wilmslow) at a temperature of 40°C and a binary mobile phase gradient at a flow rate of 0.7 mL/min. Initial […]
(0.1% formic acid in acetonitrile).
0.5 minutes and then immediately returned to initial conditions. Sample analysis was by electrospray ionisation combined with multiple reaction monitoring in positive ion mode.
The ionspray voltage was 5500V.
Bi-directional Permeability in Caco-2 Cell Line: […]

[2] = Kinetic solubility in PBS pH 7.4; assay type: physicochemical; settings: upper limit 300 µM
[3] = Plasma protein binding, equilibrium dialysis; assay type: in vitro ADME, human
Method: This allows an assessment of the free drug concentration available to distribute into the tissues and interact with the target. The extent to which a compound binds to the constituents of blood plasma can influence drug distribution. […] page 10: In vitro Absorption, Distribution and Metabolism studies General note: These studies were performed by Contract Research Organisation (CRO) Pharmaron. The methodology provided within the ESI is published within the express permission of this organisation. The percentage of a compound recovered during the […] limitations such as unintended potential non-specific binding events to experimental equipment, solubility issues, etc. Protein Binding measurements in human plasma by using equilibrium dialysis: The fraction unbound in human plasma (P-KB, Ltd People's hospital of Shandong) was measured using 96-well Equilibrium Dialysis Plate (HTDialysis LLC, Gales Ferry, CT). Human plasma containing 5 μM test compound was dialysed against dialysis buffer (PBS, pH 7.4) with initial samples taken to allow for assessment of plasma stability and recovery before the plate was incubated for 6 hours at 37°C at 5% CO2. Samples were removed at 6 hours, and all samples were matrix matched and quenched with acetonitrile containing internal standard. Samples were centrifuged at 3,220g for 30 minutes to precipitate protein and enable sampling of supernatant prior to appropriate dilution for liquid chromatography mass-spectrometry (LC-MS/MS) analysis. Samples were analysed using a Shimadzu Nexera LC Binary Gradient LC-30AD (Shimadzu Inc, Kyoto), coupled to a Sciex 6500+ (AB Inc., Illinois). Separation was achieved using a XSelect HSS T3 (2.5μm, 2.1 x 50 mm) (Waters Ltd., Wilmslow) column at a temperature of 40°C and a binary mobile phase gradient at a flow rate of 0.8 mL/min. Initial LC conditions comprised of […] was ramped to 98% B at 0.5 min, held for 0.4 min and then immediately returned to initial conditions. Sample analysis was by electrospray ionisation in combined with multiple reaction monitoring in positive ionisation mode. The ionisation voltage was +5500 V. Kinetic Solubility Determination in PBS pH 7.4: The stock solutions of test and control compounds were prepared in DMSO at 10 mM. From […] These solutions were then shaken at 1100 rpm for 2 hours at 25°C. Following incubation, the samples were filtered using a vacuum manifold. The filtrate was analysed and quantified against a standard of known concentration using liquid chromatography mass- spectrometry (LC-MS/MS). Samples were analysed using a Shimadzu Nexera LC Binary Gradient LC-30AD (Shimadzu Inc, Kyoto), coupled to a Sciex 4500 mass spectrometer (AB Inc., Illinois). Separation of […] Wilmslow) at a temperature of 40°C and a binary mobile phase gradient at a flow rate of 0.8 mL/min. […] This was ramped to 98% solvent B at 0.5 minutes, held for 0.4 minutes and then immediately returned to initial conditions. Sample analysis was by electrospray ionisation combined with multiple reaction monitoring in positive ion mode. The ionspray voltage was […]. 10

[4] = H2O 5% EtOH, 5.56 mM; cited from earlier work
[5] = set-up: method as in PMID 29633393; settings: H2O 5% EtOH, cited from earlier work
[6] = 1H NMR DOSY, DMSO-d6 0.5% H2O, 112 mM, 298 K; cited from earlier work
[7] = set-up: method as in PMID 29633393; settings: D2O 5% EtOH, 5.56 mM, 298 K; cited from earlier work
[8] = H2O 5% EtOH, 5.56 mM; cited from earlier work; remark: listed apart in the source

Structure (SMILES): O=C(Nc1ccc(C(F)(F)F)cc1)N[C@H](Cc1ccccc1)C(=O)O [SSA 9]
- microsomal CLint at 1 µM ([1]; liver microsomes, rat microsomes): < 7.5 µL/min/mg
- Hepatic Extraction Ratio (ER) ([1]; rat): < 0.21
- Predicted Hepatic CLH ([1]; rat): < 14.42 mL/min/kg
- In vitro t1/2 ([1]; rat, 1 µM, 0.5 mg protein/mL): > 3.0797 h
- Remaining percentage (%) 0.5 min ([1]; rat, +Cofactors): 100.00%
- Remaining percentage (%) 5 min ([1]; rat, +Cofactors): 107.16%
- Remaining percentage (%) 15 min ([1]; rat, +Cofactors): 104.62%
- Remaining percentage (%) 30 min ([1]; rat, +Cofactors): 102.68%
- Remaining percentage (%) 60 min ([1]; rat, +Cofactors): 102.41%
- Remaining percentage (%) 0.5 min ([1]; rat, -Cofactors): 100.00%
- Remaining percentage (%) 60 min ([1]; rat, -Cofactors): 107.67%
- half-life at 1 µM ([1]; rat, liver microsomes, rat, 1 µM, 0.5 mg protein/mL, read-out: In vitro t1/2): > 3.08 h
- CLint scaled at 1 µM ([1]; rat, liver microsomes, read-out: Scale-up CLint): < 18.3 mL/min/kg
- solubility at 2 h ([2]; phosphate buffered saline, 25 °C, pH 7.4, aqueous buffer, kinetic from dmso stock): 271 µM (≈ 95.5 µg/mL)
- Solubility in PBS pH 7.4 (μM) ([2]; 25°C, 2 hours): 271 μM
- % Bound ([3]; human plasma, 5 µM, 6 hours, 37 °C): 99.73%
- % Unbound ([3]; human plasma, 6 hours): 0.3%
- % Stability / % Remaining at 6 hr ([3]; human plasma, 6 hr): 98.85%
- % Recovery ([3]; human plasma, after 6 hours): 98.3%
- recovery at 6 h, 5 µM ([3]; human, human plasma, pH 7.4, human plasma, after 6 hours): 98.3%
- remaining at 6 h, 5 µM ([3]; human, plasma, human plasma, 6 hr, read-out: % Stability / % Remaining at 6 hr): 98.9%
- fraction unbound at 6 h, 5 µM ([3]; human, plasma, pH 7.4, human plasma, 5 µM, 6 hours, 37 °C, read-out: % Bound (converted)): 0.003
- fraction unbound at 6 h, 5 µM ([3]; human, plasma, pH 7.4, human plasma, 6 hours, read-out: % Unbound): 0.0027

Structure (SMILES): O=C(O)CNC(=O)Nc1ccc(C(F)(F)F)cc1 [SSA 1]
- dH (nm), DLS peak maxima [4]: 220 nm and 220 (ref. [30]) nm
- CAC (mM) ([5]; approx. 291 K): 11.2 (ref. [30]) mM
- Surface tension (mN m^-1) [5]: 39.33 (ref. [30]) mN m^−1
- dH (nm) [6]: 1.3 (ref. [30]) nm
- Q NMR (%) SSA anion [7]: 68 (ref. [30]) %
- Zeta potential (mV) [8]: -37 mV and −37 (ref. [30]) mV
